Data reported in US8653283B2, “Anticancer agents” (The Regents of The University of California, priority 2009, dated 2014).

Key:
[1] = system: human colon tumor HCT-116 cell line; settings: for GI50: HCT-116 cells, MTT assay, in house
Bacillus subtilis 6633 = test: Minimum inhibitory concentration (MIC) assay; format: cell-based; settings: Bacillus subtilis 6633, 37° C. for 18 h, no visible bacterial growth, duplicates
Protocol: Minimum Inhibitory Concentration (MIC) Assay of Spirohexenolide A (1), using Bacillus subtilis 6633.
Spirohexenolide A (1) in dimethyl sulfoxide (DMSO) was diluted to 10, 15, 30, 60, 120, 250, 500, and 1000 μg/mL stocks in tryptic soy broth with a final concentration of 1% DMSO. B. subtilis, cultured for 18 h at 37° C. in tryptic soy broth, was inoculated at 1/10000 to a final volume of 200 μL per well on a 96 well plate and then treated with 2 μL of a stock solution of 1 (10, 15, 30, 60, 120, 250, 500, and 1000 μg/mL in tryptic soy broth containing 1% DMSO). […] The compound was tested in duplicates.

[2] = system: neuroblastoma cells (Neuro2a); test: Inhibition of mitosis; format: cell-based; settings: by inhibiting the exit from anaphase
HCT-116 cells [3] = test: Cellular uptake and subcellular localization by fluorescence microscopy; format: cell-based, human; settings: live HCT-116 cells, 10 μM, time lapse over 24 h
Protocol: HCT-116 cells (ATCC CCL-247) were cultured in Dulbecco's modification of Eagle's medium (DMEM) with 4.5 g L^−1 glucose, […], and 5% heat inactivated fetal calf serum (FCS) in glass-bottom dishes. Fluorescent images were collected on a Leica (Wetzlar, Germany) DMI6000 inverted confocal microscope with a Yokogawa (Tokyo, Japan) spinning disk confocal head, Orca ER High Resolution B&W Cooled CCD camera (6.45 μm/pixel at 1×) (Hamamatsu, Sewickley, Pa.), Plan Apochromat 40×/1.25 na and 63×/1.4 na objective, and a Melles Griot (Carlsbad, Calif.) Argon/Krypton 100 mW air-cooled laser for 488, 568, and 647 nm excitations. Confocal z-stacks were acquired in all experiments. […]
Cellular uptake and localization of 1 in HCT-116 tumor cells was then evaluated using fluorescence microscopy. […] HCT-116 cells were treated with 10 μM 1 in DMEM containing 10% FCS, 100 U/mL penicillin-G, and 100 μg/mL streptomycin and analyzed by fluorescence microscopy. […] Within 6-12 h, fluorescence from 1 concentrated within vesicles surrounding the nucleus and remained in these structures (FIG. 4b). […]
The cellular uptake of localization of 1 in HCT-116 tumor cells was then evaluated using fluorescence microscopy. […] HCT-116 cells were treated with 10 μM 1 in DMEM containing 10% FCS, 100 U/mL penicillin-G and 100 μg/mL streptomycin and analyzed by fluorescence microscopy. […]

HCT-116 cells [4] = test: Cell cycle effects by three-color confocal fluorescence microscopy; format: cell-based, human
Excerpt: Images in a) and b) depict live cells. c) A confocal fluorescent image indicating the effects of 1 has on the cell structure. Cells treated as in a) were fixed with 0.1% formalin and stained for their DNA content with SYTO-60 (false colored in blue) (Wlodkowic et al., Cytometry A, 73:496-507 (2008)), actin with FITC-phalloidin (green) (Verderame et al., Proc Natl Acad Sci USA, 77:6624-6628 (1980)), and microtubules with BODIPY FL-paclitaxel (red) (Bicamumpaka et al., Int J Mol Med, 2:161-165 (1998)). For each experiment, HCT-116 cells were cultured to 10^6 cells/cm^2 in a 35 mm poly-D-lysine coated glass-bottom dish and treated with 1 mL of 10 μM 1 in Dulbecco's modified essential medium (DMEM) containing 10% fetal bovine serum (FBS), 100 U/mL penicillin-G and 100 μg/mL streptomycin.
The effects of 1 on the cell cycle were also evaluated. HCT-116 cells cultured in DMEM were treated 1 h before the onset of mitosis with 10 μM 1 in DMEM. After 12 h (several hours after the completion of mitosis), the cells were fixed for 5 min with 0.5% formalin and 0.1% glutaraldehyde in PBS pH 7.2, washed extensively with PBS pH 7.2, treated with a cocktail of fluorescent probes to visualize DNA, actin, and microtubules and examined using three-color confocal fluorescence microscopy. […]

[5] = system: NCI-60 human tumor cell line; test: NCI-60 human tumor cell line screen, multiple dose / dose-response; format: cell-based
melanoma = test: NCI-60 human tumor cell line screen, single dose; format: cell-based; settings: dosed at 10 μM, single dose NCI-60
renal cancers = test: NCI-60 human tumor cell line screen, single dose; format: cell-based; settings: dosed at 10 μM, single dose NCI-60
prostate = test: NCI-60 human tumor cell line screen, single dose; format: cell-based; settings: dosed at 10 μM, single dose NCI-60
[6] = mouse, in vivo
[7] = system: breast cancer cells (HeLa); test: Inhibition of mitosis; format: cell-based; settings: by inhibiting the exit from anaphase
[8] = target: T1, human migration inhibitory factor (hMIF) (Homo sapiens, UniProt P14174); test: Anti-IAF tag immunoprecipitation, LC-MS/MS identification and Western blot; format: binding; settings: HCT-116 cell lysate, ~12 kDa band
T1 construct: confirmed the presence of hMIF in the immunoprecipitated fraction of HCT-116 cell lysate; endogenous in cells; host or cells: HCT-116 cell lysate
T1 sequence (P14174 2-115 limits assumed): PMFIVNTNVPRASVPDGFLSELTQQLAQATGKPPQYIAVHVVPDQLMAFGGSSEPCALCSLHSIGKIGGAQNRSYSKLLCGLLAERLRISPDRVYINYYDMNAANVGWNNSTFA
Excerpt: A) Anti-IAF immunoprecipitation studies identify a ˜12 kDa band. Lane L1, L2 and L3 depict HCT116 cell lysate, an IAF dye elution (bands correspond to fragments of the anti-IAF mAb) and glycine wash, respectively. The ˜12 kDa band was identified in the glycine wash. B) Trypsin-digest LC-MS/MS analysis identified three peptides that overlapped with the hMIF protein (shown in red). C) Western blot analysis using a mouse anti-MIF mAb confirmed the presence of hMIF in the immunoprecipitated fraction of HCT-116 cell lysate, as well as in E. coli lysates bearing recombinanthMIF. Arrow denotes the position of hMIF. The upper bands arose from the mouse anti-IAF mAb used in this experiment (background).
Attention was then turned to screening for proteins that bind to the spirohexenolides. Using the affinity properties of the IAF probe 4, we deployed an anti-IAF tag immunoprecipitation protocol to isolate a 12 kDa band (Lane L3 in FIG. 9A). […] Western blot analysis (FIG. 9C) confirmed hMIF the identification of hMIF.

spirohexenolide B
GI50 [1]: 61.2 ± 7.8 µM

spirohexenolide A
MIC (Bacillus subtilis 6633): 12.25 µM
inhibition of mitosis [2]: inhibit mitosis
cell phenotype after treatment (HCT-116 cells [3]): characteristic apoptotic phenotype
effect on the cell cycle (HCT-116 cells [4]; 10 μM, treated 1 h before onset of mitosis, fixed after 12 h): induced cell cycle arrest during mitosis
inhibition of mitosis (HCT-116 cells [4]; colon cancer cells (HCT111), by inhibiting the exit from anaphase): inhibit mitosis
IC50 [1]: 500 nM
GI50 [1]: 36 ± 5.1 µM
activity (GI50) by cell line ([5]; leukemia (CCRF-CEM, MOLT-4, RPMI-8226), lung cancer (HOP-92), colon cancer (SW-629) cell lines): enhanced activity
sensitivity in dose-response assays ([5]; leukemia, renal cancer, and melanoma cell lines): selective sensitivity
inhibition (melanoma): 96%
inhibition (renal cancers): 95%
inhibition (prostate): 85%
single dose producing toxicity [6]: 6 to 10 mg/kg
inhibition of mitosis [7]: inhibit mitosis

CC1=C[C@]2(C)/C=C(C)/C=C/C[C@@H](OC(=O)CCCn3cc(CNC(=O)Cc4cc(=O)oc5cc(N(C)C)ccc45)nn3)/C=C3C=C/C(=C4\C(=O)O[C@]2(C[C@@H]1C)C4=O)OC/3 [probe 3]
cell phenotype after treatment (HCT-116 cells [3]): characteristic apoptotic phenotype

CC1=C[C@]2(C)/C=C(C)/C=C/C[C@@H](OC(=O)CCC(=O)NCCCCCCNC(=O)Cc3cc(=O)oc4cc(N(C)C)ccc34)/C=C3C=C/C(=C4\C(=O)O[C@]2(C[C@@H]1C)C4=O)OC/3 [probe 4]
protein isolated by the probe [8]: human migration inhibitory factor (hMIF)
